Data taken from patent publication US20050250677A1, “Glycopeptide antibiotic derivatives” (priority 2002, published 2005).
Entries after “also recorded” stand apart in the source; their conditions may differ. Like-named read-outs stand apart in the source and are kept apart here.

Legend:
human lymphocyte CEM = experiment: Cytostatic activity assay, CEM cells; type: cell-based; details: read-out: IC50 CEM (compound concentration required to inhibit tumor cell proliferation by 50%)
VZV (wild-type strains) = experiment: Anti-VZV assay (wild-type strains): virus-induced cytopathicity in HEL cell cultures; type: cell-based, varicella-zoster virus; details: HEL cell cultures
[1] = test system: human lymphocyte Molt4/clone 8; experiment: Cytostatic activity assay, Molt4/clone 8 cells; type: cell-based; details: read-out: IC50 Molt4/C8 (compound concentration required to inhibit tumor cell proliferation by 50%)
Vero cells = details: read-out: CC50 Vero
FCV = experiment: Feline corona virus assay in Feline Crandel kidney cells (MTS); type: cell-based
Experimental: Feline Crandel kidney cells were seeded in 96-well microtiter plates at 24,000 cells/well. Then, 24 hrs later, an appropriate inoculum of FCV is added together with 5-fold dilutions of the test compounds. After 4 days, a MTS/PMS solution was added to each well. Following a 90 min incubation period at 37° C., the optical density of the wells was read at 498 nm in a microplate reader.

[2] = test system: SARS virus (strain Frankfurt-1); experiment: microbe, parasite or virus in culture; type: cell-based, human corona (SARS) virus
murine leukemia L1210 = experiment: Cytostatic activity assay, L1210 cells; type: cell-based; details: read-out: IC50 L1210 (compound concentration required to inhibit tumor cell proliferation by 50%)
HEL cells [3] = test system: HEL cells
HIV-2(ROD) = experiment: Inhibition of HIV-2 (ROD)-induced cytopathicity (giant cell formation) in CEM cells; type: cell-based
Experimental: (§1) A variety of glycopeptide antibiotic derivatives of vancomycin, eremomycin and teicoplanin including their aglycon derivatives were evaluated for their inhibitory activity against HIV-1 (IIIB) and HIV-2(ROD) in CEM cell cultures.

HIV-1 (IIIB) = experiment: Inhibition of HIV-1 (IIIB)-induced cytopathicity (giant cell formation) in CEM cells; type: cell-based
Experimental: as §1

HEL cells [4] = details: read-out: CC50 (HEL), HEL cells
CMV = experiment: Anti-CMV assay: virus-induced cytopathicity in HEL cell cultures
[5] = VZV strain OKA, read-out: EC50 VZV (OKA)
[6] = VZV strain YS, read-out: EC50 VZV (YS)
[7] = FCV in FCK cells, read-out: EC50 FCV
[8] = SARS virus in Vero cells, read-out: EC50 SARS virus
[9] = read-out: EC50 HIV-2 (concentration required to inhibit HIV-induced giant cell formation by 50%), HIV-2, CEM cell cultures
[10] = read-out: EC50 HIV-1 (concentration required to inhibit HIV-induced giant cell formation by 50%), HIV-1, CEM cell cultures
[11] = read-out: EC50 CMV AD-169, CMV strain AD-169, HEL cell cultures
[12] = read-out: EC50 CMV Davis, CMV strain Davis, HEL cell cultures
[13] = HIV-1 (IIIB), CEM cell cultures, read-out: EC50 against HIV-1

Row | SMILES | IC50 (human lymphocyte CEM) [µM] | EC50 (VZV (wild-type strains); [5]) [µM] | EC50 (VZV (wild-type strains); [6]) [µM] | IC50 [1] [µM] | CC50 (Vero cells) [µM] | CC50 (FCK cells; read-out: CC50 FCK, FCK cells) [µM] | EC50 (FCV; [7]) [µM] | EC50 [2, 8] [µM] | IC50 (murine leukemia L1210) [µM] | MTC (HEL) (HEL cells [3]; anti-VZV table) | EC50 (HIV-2(ROD); [9]) [µM] | EC50 (HIV-1 (IIIB); [10]) [µM] | CC50 (HEL cells [4]; anti-VZV table) [µM] | other results
1 | CN(C)CCCNC(=O)C1NC(=O)C2NC(=O)C(NC(=O)C3NC(=O)C4NC(=O)C(Cc5ccc(c(Cl)c5)Oc5cc3cc(c5O)Oc3ccc(cc3Cl)C2O)NC(=O)C(N)c2ccc(O)c(c2)Oc2cc(O)cc4c2)c2ccc(O)c(c2)-c2c1cc(O)c(CN1CCN(Cc3ccc(-c4ccccc4)cc3)CC1)c2O (stereo not shown) [Compound 28] | > 500 | 2.5 | 2 | > 500 | > 100 | 21 | > 50 | 16 | 318 ± 256 | ≧5-20 μM | 8.5 ± 2.1 | 3.5 ± 0.7 | 105 | 
2 | NC1C(=O)NC2Cc3ccc(c(Cl)c3)Oc3cc4cc(c3O)Oc3ccc(cc3Cl)C(O)C3NC(=O)C(NC(=O)C4NC(=O)C(NC2=O)c2cc(O)cc(c2)Oc2cc1ccc2O)c1ccc(O)c(c1)-c1c(O)cc(O)cc1C(C(=O)NCc1ccc(F)cc1)NC3=O (stereo not shown) [Compound 165] | > 250 |  |  | ≥ 250 | > 100 | 80 | 11 | 26 | 240 ± 15 |  | 30 ± 7.1 | 9 ± 5.3 |  | 
3 | NC1C(=O)NC2Cc3ccc(c(Cl)c3)Oc3cc4cc(c3O)Oc3ccc(cc3Cl)C(O)C3NC(=O)C(NC(=O)C4NC(=O)C(NC2=O)c2cc(O)cc(c2)Oc2cc1ccc2O)c1ccc(O)c(c1)-c1c(O)cc(O)cc1C(C(=O)N(C(=O)NC1CCCCC1)C1CCCCC1)NC3=O (stereo not shown) [Compound 167] | 165 ± 34 |  |  | 132 ± 9 | > 100 | 62 | 7.7 | 47 | 130 ± 1 |  | 10 ± 2.8 | 6 ± 2.6 |  | 
4 | CCCCc1ccc(CN2CCN(C(=O)C3NC(=O)C4NC(=O)C(NC(=O)C5NC(=O)C6NC(=O)C(Cc7ccc(c(Cl)c7)Oc7cc5cc(c7O)Oc5ccc(cc5Cl)C4O)NC(=O)C(N)c4ccc(O)c(c4)Oc4cc(O)cc6c4)c4ccc(O)c(c4)-c4c(O)cc(O)cc43)CC2)cc1 (stereo not shown) [Compound 124] |  | 0.34 | 0.22 |  | > 100 | 17 |  | 15 |  | ≧5-100 μM |  |  | 71 | anti-CMV activity (CMV): anti-CMV activity; EC50 (CMV; [11]): 2.4 µM; EC50 (CMV; [12]): 3.2 µM; MTC (HEL) (HEL cells [3]; anti-CMV table): ≧5-100 μM; CC50 (HEL cells [4]; anti-CMV table): 71 µM
5 | NCCCCCCNC(=O)C1NC(=O)C2NC(=O)C(NC(=O)C3NC(=O)C4NC(=O)C(Cc5ccc(c(Cl)c5)Oc5cc3cc(c5O)Oc3ccc(cc3Cl)C2O)NC(=O)C(N)c2ccc(O)c(c2)Oc2cc(O)cc4c2)c2ccc(O)c(c2)-c2c(O)cc(O)cc21 (stereo not shown) [Compound 41] | > 500 | > 5 | 12 | > 500 | > 100 | > 50 | 21 | 44 | > 500 | ≧20-50 μM | 17.5 ± 3.5 | 15 | 190 | 
6 | COC(=O)C1NC(=O)C2NC(=O)C(NC(=O)C(N)c3cc(Oc4ccc(CC(NC(=O)OCc5ccccc5)C(=O)O)cc4Cl)c(O)c(c3)Oc3ccc(cc3Cl)C2O)c2ccc(O)c(c2)-c2c1cc(O)c(CNC1C3CC4CC(C3)CC1C4)c2O (stereo not shown) [Compound 54] | > 250 |  |  | > 250 | > 100 |  | 19 | 47 | 181 ± 4 |  | 37 ± 18 | 17 ± 3.5 |  | CC50 (FCK cells): > 50 µM
7 | CCCCc1ccc(CN2CCN(Cc3c(O)cc4c(c3O)-c3cc(ccc3O)C3NC(=O)C5NC(=O)C(CC(N)=O)NC(=O)C(NC(=O)C(CC(C)C)NC)C(O)c6ccc(c(Cl)c6)Oc6cc5cc(c6OC5OC(CO)C(O)C(O)C5OC5CC(C)(N)C(O)C(C)O5)Oc5ccc(cc5Cl)C(O)C(NC3=O)C(=O)NC4C(=O)O)CC2)cc1 (stereo not shown) [Compound 1] | > 100 |  |  | > 100 | > 100 | > 50 | 30 | 43 | 53 ± 9 |  | 22 ± 3.5 | 12 ± 3.5 |  | EC50 (FCV; read-out: EC50 against FCV): 30 to 43 µM; EC50 ([2]; read-out: EC50 against SARS virus): 30 to 43 µM; EC50 (HIV-1 (IIIB); [13]): 5.5 µM
8 | CCCCc1ccc(CN2CCN(Cc3c(O)cc4c(c3O)-c3cc(ccc3O)C3NC(=O)C5NC(=O)C(CC(N)=O)NC(=O)C(NC(=O)C(CC(C)C)NC)C(O)c6ccc(c(Cl)c6)Oc6cc5cc(c6OC5OC(CO)C(O)C(O)C5OC5CC(C)(N)C(O)C(C)O5)Oc5ccc(cc5)C(OC5CC(C)(N)C(O)C(C)O5)C(NC3=O)C(=O)NC4C(=O)NC)CC2)cc1 (stereo not shown) [Compound 5] | 40 ± 4 |  |  | 17 ± 3 | 54 | 28 | 5.4 | 13 | 24 ± 0.4 |  | > 10 |  |  | activity against FCV (FCV): active; also recorded: pronounced activity; EC50 (HIV-1 (IIIB); [13]): 0.43 µM
9 | CCCCOc1ccc(CN2CCN(C(=O)C3NC(=O)C4NC(=O)C(NC(=O)C5NC(=O)C6NC(=O)C(Cc7ccc(c(Cl)c7)Oc7cc5cc(c7O)Oc5ccc(cc5Cl)C4O)NC(=O)C(N)c4ccc(O)c(c4)Oc4cc(O)cc6c4)c4ccc(O)c(c4)-c4c(O)cc(O)cc43)CC2)cc1 (stereo not shown) [Compound 125] |  | 0.32 | 0.25 |  | > 100 | 14 | 1.6 | 10 |  | ≧2-20 μM |  |  | 44 | anti-CMV activity (CMV): anti-CMV activity; EC50 (CMV; [11]): 1.9 µM; EC50 (CMV; [12]): 2.8 µM; MTC (HEL) (HEL cells [3]; anti-CMV table): ≧2-20 μM; CC50 (HEL cells [4]; anti-CMV table): 44 µM
10 | CC(NC(=O)C1NC(=O)C2NC(=O)C(NC(=O)C3NC(=O)C4NC(=O)C(Cc5ccc(c(Cl)c5)Oc5cc3cc(c5O)Oc3ccc(cc3Cl)C2O)NC(=O)C(N)c2ccc(O)c(c2)Oc2cc(O)cc4c2)c2ccc(O)c(c2)-c2c(O)cc(O)cc21)C12CC3CC(CC(C3)C1)C2 (stereo not shown) [Compound 160] | 106 |  |  | 97 ± 10 | > 100 | 56 | 4.5 | 27 | 92 ± 5 |  | 7.5 ± 0.7 | 3.3 ± 1.4 |  | 
11 | NC1Cc2ccc(c(Cl)c2)Oc2cc3cc(c2O)Oc2ccc(cc2Cl)C(O)C2NC(=O)C(NC(=O)C3NC(=O)C(c3cc(O)cc(Oc4cc(C5NC(=S)N(c6ccccc6)C5=O)ccc4O)c3)NC1=O)c1ccc(O)c(c1)-c1c(cc(O)c(CNC3C4CC5CC(C4)CC3C5)c1O)C(C(=O)O)NC2=O (stereo not shown) [Compound 55] | 242 ± 11 |  |  | ≥ 250 | > 100 |  | 22 | 31 | 73 ± 24 |  |  |  |  | CC50 (FCK cells): > 100 µM; EC50 (HIV-2(ROD); HIV-2(ROD), CEM cell cultures, read-out: EC50 against HIV-2): 17 µM; EC50 (HIV-1 (IIIB); [13]): 13 µM
